Measurements from PMC3602366 (Insect biochemistry and molecular biology, 2013).
Where no end group is shown, it is not given here.

How the values were obtained:
[1] = tested on: SG acini; settings: paracrine factor; ref Kaufman et al., 1999; Šimo et al., 2011a; cited from earlier work
[2] = tested on: synganglion; settings: ref Kaufman, 1978; McSwain et al., 1992; cited from earlier work
[3] = target: MIP-R1 (I. scapularis myoinhibitory peptide receptor 1) (Ixodes scapularis, UniProt L7ZCA0); experiment: cell-based
[4] = target: SIFa-R (I. scapularis SIFamide receptor) (Ixodes scapularis, UniProt L7Z4E7); experiment: Receptor functional assay; format: cell-based

NCCc1ccc(O)c(O)c1 [Dopamine]
activation of SG acini [1]: acts as a paracrine factor for the activation of SG acini for fluid secretion

CC[C@@H]1C(=O)OC[C@@H]1Cc1cncn1C [pilocarpine]
activation of the synganglion [2]: activates the synganglion

ASDWNRLSGMW-NH2 [MIP2]
EC50 [3]: 32 nM

AYRKPPFNGSIF-NH2 [SIFamide]
EC50 [4]: 5.8 nM

ENHWNDLSGYW-NH2 [MIP3]
EC50 [3]: 15 nM

GGDWNALSGMW-NH2 [MIP1]
EC50 [3]: 40 nM
